Values quoted from earlier work, collected in patent US6964953B2, “Methods for treating stress disorders using glucocorticoid receptor-specific antagonists” (Corcept Therapeutics, Inc., priority 2001, dated 2005).

Tests used:
[1] = in one study; Kawai (1989)
[2] = system: rat hippocampus; conditions: Talmi et al. 1996
[3] = system: mouse hippocampus neuronal cells; conditions: Behl et al. 1997
[4] = biological target: T1, glucocorticoid (GR) receptor (Homo sapiens, UniProt P04150); conditions: result in words
T1 sequence (P04150 1-777): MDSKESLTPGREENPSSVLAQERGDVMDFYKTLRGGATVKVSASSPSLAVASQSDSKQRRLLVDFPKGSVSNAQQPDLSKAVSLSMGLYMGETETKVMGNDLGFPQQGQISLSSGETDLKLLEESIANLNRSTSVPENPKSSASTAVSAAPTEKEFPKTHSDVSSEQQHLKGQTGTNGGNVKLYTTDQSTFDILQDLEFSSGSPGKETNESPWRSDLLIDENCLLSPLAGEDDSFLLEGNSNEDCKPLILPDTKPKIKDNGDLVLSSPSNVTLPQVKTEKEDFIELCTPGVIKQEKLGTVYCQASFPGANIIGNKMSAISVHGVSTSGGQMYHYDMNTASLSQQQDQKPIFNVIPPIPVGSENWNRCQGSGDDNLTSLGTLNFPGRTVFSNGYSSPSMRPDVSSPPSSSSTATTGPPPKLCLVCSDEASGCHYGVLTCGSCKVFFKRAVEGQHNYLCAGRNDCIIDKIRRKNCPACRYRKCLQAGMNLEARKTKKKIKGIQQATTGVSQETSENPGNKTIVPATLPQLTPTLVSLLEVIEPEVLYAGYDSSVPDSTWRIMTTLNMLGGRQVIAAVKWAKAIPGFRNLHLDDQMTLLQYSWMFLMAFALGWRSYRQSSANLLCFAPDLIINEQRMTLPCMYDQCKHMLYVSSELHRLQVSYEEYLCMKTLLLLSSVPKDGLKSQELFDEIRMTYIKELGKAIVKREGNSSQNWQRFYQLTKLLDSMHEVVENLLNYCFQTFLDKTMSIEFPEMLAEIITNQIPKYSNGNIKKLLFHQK

[5] = biological target: T2, progesterone receptor (Homo sapiens, UniProt P06401); conditions: result in words
T2 sequence (P06401 1-933): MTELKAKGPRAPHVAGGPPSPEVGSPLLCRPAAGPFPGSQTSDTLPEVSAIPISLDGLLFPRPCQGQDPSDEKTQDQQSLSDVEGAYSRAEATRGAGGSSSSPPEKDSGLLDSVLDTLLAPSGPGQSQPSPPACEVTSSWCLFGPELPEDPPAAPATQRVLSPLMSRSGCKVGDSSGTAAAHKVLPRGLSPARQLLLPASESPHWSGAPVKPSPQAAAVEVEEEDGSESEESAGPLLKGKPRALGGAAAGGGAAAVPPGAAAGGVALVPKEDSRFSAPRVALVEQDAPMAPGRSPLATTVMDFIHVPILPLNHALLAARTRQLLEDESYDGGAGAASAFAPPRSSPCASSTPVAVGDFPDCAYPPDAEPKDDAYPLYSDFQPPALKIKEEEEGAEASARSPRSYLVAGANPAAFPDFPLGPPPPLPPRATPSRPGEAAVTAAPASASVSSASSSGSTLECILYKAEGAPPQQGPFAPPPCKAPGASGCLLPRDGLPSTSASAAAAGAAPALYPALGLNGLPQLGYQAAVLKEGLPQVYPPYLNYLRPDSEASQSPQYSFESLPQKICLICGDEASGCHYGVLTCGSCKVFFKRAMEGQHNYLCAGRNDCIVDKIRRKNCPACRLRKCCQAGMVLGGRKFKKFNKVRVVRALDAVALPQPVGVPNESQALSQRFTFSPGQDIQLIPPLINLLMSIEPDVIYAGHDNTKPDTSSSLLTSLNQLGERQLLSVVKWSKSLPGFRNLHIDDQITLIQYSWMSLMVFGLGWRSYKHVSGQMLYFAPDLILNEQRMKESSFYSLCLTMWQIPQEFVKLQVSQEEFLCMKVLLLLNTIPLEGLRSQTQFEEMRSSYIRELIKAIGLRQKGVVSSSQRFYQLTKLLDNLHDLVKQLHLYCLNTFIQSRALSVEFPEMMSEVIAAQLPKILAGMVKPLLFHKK

Structure (SMILES)	daily dose excreted in the urine [1]	abrogation of age-associated electrophysiological changes [2]	protection against oxidative stress-induced neuronal cell death [3]	GR antagonist activity [4]	progesterone receptor antagonist activity [5]
CC#C[C@]1(O)CC[C@H]2[C@@H]3CCC4=CC(=O)CCC4=C3[C@@H](c3ccc(N(C)C)cc3)C[C@@]21C [Mifepristone, 17-beta-hydroxy-11-beta-(4-dimethyl-aminophenyl)-17-alpha-(1-propynyl)-estra-4,9-dien-3-one]	less than 0.5%	effective at abrogating some of the age-associated electrophysiological changes	providing protection against oxidative stress-induced neuronal cell death	powerful antagonist	powerful antagonist
CC#C[C@]1(O)CC[C@H]2[C@@H]3CCC4=CC(=O)CCC4=C3[C@@H](c3ccc(OCCN(C)C)cc3)C[C@@]21C [RU009, 11-beta-(4-dimethyl-aminoethoxyphenyl)-17-alpha-(propynyl-17 beta-hydroxy-4,9-estradien-3-one)]				shown to have GR antagonist effects	
